# Assay results published in patent US7696203B2, “DNA-PK inhibitors” (Kudos Pharmaceuticals Limited, priority 2005, dated 2010).
# Where two headings read alike, the source gives them in different places.
# How the values were obtained:
# Mammalian DNA-PK = Mammalian DNA-PK (Homo sapiens, UniProt P78527); experiment: DNA-PK inhibition assay (ELISA of p53 Ser15 phosphorylation of GST-p53N66); assay type: biochemical, human (isolated from HeLa cell nuclear extract)
# Description: In order to assess the inhibitory action of the compounds against DNA-PK in vitro, the following assay was used to determine IC50 values.
# To the assay mix, varying concentrations of inhibitor (in DMSO at a final concentration of 1%) were added. After 10 minutes of incubation, ATP was added to give a final concentration of 50 μM along with a 30 mer double stranded DNA oligonucleotide (final concentration of 0.5 ng/ml) to initiate the reaction. After 1 hour with shaking, 150 μl of phosphate buffered saline (PBS) was added to the reaction and 5 μl then transferred to a 96 well opaque white plate containing 45 μl of PBS per well where the GSTp53N66 substrate was allowed to bind to the wells for 1 hour. To detect the phosphorylation event on the serine 15 residue of p53 elicited by DNA-PK a p53 phosphoserine-15 antibody (Cell Signaling Technology) was used in a basic ELISA procedure. An anti-rabbit HRP conjugated secondary antibody (Pierce) was then employed in the ELISA before the addition of chemiluminescence reagent (NEN Renaissance) to detect the signal as measured by chemiluminescent counting via a TopCount NXT (Packard).
# The enzyme activity for each compound is then calculated using the following equation: […]
# These are determined over a range of different concentrations, normally from 10 μM down to 0.001 μM. Such IC50 values are used as comparative values to identify increased compound potencies.
# cells = conditions: ionising radiation, literature; cited from earlier work
# HeLa cells = experiment: Survival Enhancement Ratio (clonogenic survival after 2 Gray irradiation); assay type: cell-based, human; conditions: inhibitor at 100 nM
# Description: Survival Enhancement Ratio
# The Survival Enhancement Ratio (SER) is a ratio of the enhancement of cell kill elicited by the DNA-PK inhibitor after 2 Grays of irradiation compared to unirradiated control cells. […] Radiation was delivered by a Faxitron 43855D machine at a dose rate of 1 Gy pre minute The SER at 2 Gray irradiation was calculated from the formula:
# The degree of cell killing was monitored by a standard clonogenic survival assay. Briefly, tissue culture treated 6-well plates were seeded with HeLa cells at an appropriate concentration to give 100-200 colonies per well and returned to the incubator in order to allow the cells to attach. Four hours later, compound or vehicle control was added to the cells. The cells were then incubated for 1 hour in the presence of inhibitor prior to irradiation at 2 Gray using a Faxitron 43855D cabinet X-ray machine. The cells were then incubated for a further 16 hours before the media was replaced with fresh media in the absence of DNA-PK inhibitor. After 8 days, colonies formed were fixed and stained with Giemsa (Sigma, Poole, UK) and scored using an automated colony counter (Oxford Optronics Ltd, Oxford, UK). The data was calculated as described above.
# [1] = DNA-PK from HeLa nuclear extract, 50 μM ATP, 30° C., read-out: IC50 (concentration at which 50% of the enzyme activity is inhibited), DNA-PK inhibition
Structure (SMILES),IC50 (Mammalian DNA-PK; [1]),further results
"Nc1ccc(-c2cccc3c(=O)cc(N4CCOCC4)[nH]c23)c2sc3ccccc3c12 [Compound 25, 8-(1-amino-dibenzothiophen-4-yl)-2-morpholin-4-yl-1H-quinolin-4-one]",< 100 nM,
"O=c1cc(N2CCOCC2)[nH]c2c(-c3ccc([N+](=O)[O-])c4c3oc3ccccc34)cccc12 [Compound 28, 2-Morpholin-4-yl-8-(1-nitro-dibenzofuran-4-yl)-1H-quinolin-4-one]",,melting point: 247 °C
O=c1cc(N2CCOCC2)nc2c(-c3cccc4c3oc3ccccc34)cccn12 [Compound 34b],,IC50 (Mammalian DNA-PK): < 100 nM
COCCN1CCN(CC(=O)Nc2ccc(-c3cccc4c(=O)cc(N5CCOCC5)[nH]c34)c3oc4ccccc4c23)CC1 [Compound 42b],< 100 nM,
C[C@@H]1CN(CCC(=O)Nc2ccc(-c3cccc4c(=O)cc(N5CCOCC5)oc34)c3oc4ccccc4c23)C[C@H](C)O1 [Compound 45a],< 100 nM,
O=C(CCN1CCOCC1)Nc1ccc(-c2cccc3c(=O)cc(N4CCOCC4)oc23)c2oc3ccccc3c12 [Compound 45c],< 100 nM,
O=c1cc(N2CCOCC2)oc2c(-c3ccccc3)cccc12 [LY294002],,sensitisation of cells to the effects of IR (cells): weakly sensitise cells
O=c1cc(N2CCOCC2)oc2c(-c3cccc4c3sc3ccccc34)cccc12 [reference compound],,SER (Survival Enhancement Ratio) (HeLa cells): 1.3; IC50 (Mammalian DNA-PK): 10 to 12 nM

# Continued, in another order:
IC50 (Mammalian DNA-PK; [1]),Structure (SMILES),further results
< 100 nM,"Nc1ccc(-c2cccn3c(=O)cc(N4CCOCC4)nc23)c2sc3ccccc3c12 [Compound 23, 9-(1-Amino-dibenzothiophen-4-yl)-2-morpholin-4-yl-pyrido[2,1-a]pyrimidin-4-one]",
< 100 nM,"O=c1cc(N2CCOCC2)nc2c(-c3ccc(O)c4c3sc3ccccc34)cccn12 [Compound 31, 9-(1-Hydroxy-dibenzothiophen-4-yl)-2-morpholin-4-yl-pyrido[2,1-a]pyrimidin-4-one]",
< 100 nM,O=C(CN1CCOCC1)Nc1ccc(-c2cccc3c(=O)cc(N4CCOCC4)[nH]c23)c2sc3ccccc3c12 [Compound 38b],
< 100 nM,C[C@@H]1CN(CC(=O)Nc2ccc(-c3cccc4c(=O)cc(N5CCOCC5)[nH]c34)c3oc4ccccc4c23)C[C@H](C)O1 [Compound 42d],
< 100 nM,O=C(CN1CCN(CCO)CC1)Nc1ccc(-c2cccc3c(=O)cc(N4CCOCC4)[nH]c23)c2oc3ccccc3c12 [Compound 42f],
